Series [1] addresses RPA (replication protein A) (Homo sapiens, UniProt P27694). Briefly: RPA-based EMSA. Format: binding. The conditions noted are these: at 10 μM. (In general: In EMSA bound probe runs differently from free probe, usually more slowly.)
The nature of a further series: Solubility. It counts as physicochemical.
The next series concerns the target full length human XPA (Homo sapiens, UniProt P23025). The series can be described thus: EMSA, binding of full length human XPA to a cisplatin-modified DNA.

Chain of full length human XPA (P23025 whole entry): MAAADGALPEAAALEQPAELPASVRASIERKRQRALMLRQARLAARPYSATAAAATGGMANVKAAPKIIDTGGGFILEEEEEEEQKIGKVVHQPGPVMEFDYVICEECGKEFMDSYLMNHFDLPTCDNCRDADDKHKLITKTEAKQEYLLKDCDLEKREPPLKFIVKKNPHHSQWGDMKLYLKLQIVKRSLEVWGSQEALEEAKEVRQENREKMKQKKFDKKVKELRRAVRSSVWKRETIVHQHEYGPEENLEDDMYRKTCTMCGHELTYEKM
Chain of RPA (replication protein A) (P27694 whole entry): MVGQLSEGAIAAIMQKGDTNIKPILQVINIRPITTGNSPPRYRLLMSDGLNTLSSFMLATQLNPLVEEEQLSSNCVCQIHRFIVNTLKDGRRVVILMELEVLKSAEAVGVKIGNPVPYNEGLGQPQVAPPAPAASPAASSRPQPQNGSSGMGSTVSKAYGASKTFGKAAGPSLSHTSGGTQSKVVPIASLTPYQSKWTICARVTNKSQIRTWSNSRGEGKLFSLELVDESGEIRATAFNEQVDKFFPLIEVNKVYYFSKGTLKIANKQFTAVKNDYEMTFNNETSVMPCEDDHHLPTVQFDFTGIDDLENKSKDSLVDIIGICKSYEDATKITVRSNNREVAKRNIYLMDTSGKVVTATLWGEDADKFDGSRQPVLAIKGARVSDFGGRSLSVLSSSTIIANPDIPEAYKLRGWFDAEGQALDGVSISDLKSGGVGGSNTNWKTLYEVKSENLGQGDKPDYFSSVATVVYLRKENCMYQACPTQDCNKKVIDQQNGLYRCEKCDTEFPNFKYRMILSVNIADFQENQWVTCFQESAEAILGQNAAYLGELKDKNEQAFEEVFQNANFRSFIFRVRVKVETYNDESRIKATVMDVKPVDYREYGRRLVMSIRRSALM

`CC1=NN(c2ccc(Cl)c(C(=O)O)c2)C(=O)/C1=C\c1ccc(-c2ccc(Cl)c(C(=O)OCc3ccccc3)c2)o1` [Compound 22]: the RPA inhibition result in series [1] is “no RPA inhibition”. The “solubility (in words)” value in the series “Solubility” is on record as “poor solubility”.
Turning to `CC1=NN(c2ccc(Cl)c(C(=O)O)c2)C(=O)/C1=C\c1ccc(-c2ccc(Cl)c(C(=O)OCc3ccccc3Cl)c2)o1` [Compound 24], the RPA inhibition entry in series [1] was “no RPA inhibition”. Also, in “Solubility”, the “solubility (in words)” value is “poor solubility”.
In the case of `CCOC(=O)c1cccc(N2N=C(C)/C(=C/c3ccc(-c4ccc(Cl)c(C(=O)NCc5ccc(F)cc5)c4)o3)C2=O)c1` [Compound 33a, (Z)-Ethyl 3-(4-((5-(4-Chloro-3-((4-fluorobenzyl)carbamoyl)phenyl)furan-2-yl)-methylene)-3-methyl-5-oxo-4,5-dihydro-1H-pyrazol-1-yl)benzoate], on full length human XPA, the “XPA inhibitory activity (in words)” value is recorded as “dramatically decreased or almost no XPA inhibitory activity”.
As for `CC1=NN(c2cccc(C(=O)O)c2)C(=O)/C1=C\c1ccc(-c2ccc(Cl)c(C(=O)NCc3ccc(F)cc3)c2)o1` [Compound 34a, (Z)-3-(4-((5-(4-Chloro-3-((4-fluorobenzyl)carbamoyl)phenyl)furan-2-yl)methylene)-3-methyl-5-oxo-4,5-dihydro-1H-pyrazol-1-yl)-benzoic Acid], the “solubility (in words)” value in the series “Solubility” is on record as “dramatically increased solubility”.
Turning to `CC1=NN(c2cccc(C(=O)NCC3CC3)c2)C(=O)/C1=C\c1ccc(-c2ccc(Cl)c(C(=O)NCC3CC3)c2)o1` [Compound 34e, (Z)-2-Chloro-N-(cyclopropylmethyl)-5-(5-((1-(3-((cyclopropylmethyl)carbamoyl)phenyl)-3-methyl-5-oxo-1H-pyrazol-4(5H)-ylidene)methyl)furan-2-yl)-benzamide], the “XPA inhibitory activity (in words)” value on full length human XPA is reported as “dramatically decreased or almost no XPA inhibitory activity”.
With `CC1=NN(c2ccc(C(=O)O)cc2)C(=O)/C1=C\c1ccc(-c2ccc(Cl)c(C(=O)NCc3ccc(F)cc3)c2)o1` [Compound 34i, (Z)-4-(4-((5-(4-Chloro-3-((4-fluorobenzyl)carbamoyl)phenyl)-furan-2-yl)methylene)-3-methyl-5-oxo-4,5-dihydro-1H-pyrazol-1-yl)benzoic Acid], the RPA inhibition result in series [1] was “no RPA inhibition”.
The same measure, in the same setting: for `CC1=NN(c2ccc(C(=O)O)cc2)C(=O)/C1=C\c1ccc(-c2ccc(Cl)c(C(=O)NCC3CC3)c2)o1` [Compound 34k, (Z)-4-(4-((5-(4-Chloro-3-((cyclopropylmethyl)carbamoyl)phenyl)-furan-2-yl)methylene)-3-methyl-5-oxo-4,5-dihydro-1H-pyrazol-1-yl)benzoic Acid] the value was “no RPA inhibition”.
As to `CC1=NN(c2cccc(C(=O)O)c2)C(=O)/C1=C\c1ccc(-c2ccc(C(=O)NCc3ccc(F)cc3)cc2)o1` [Compound 39a, (Z)-3-(4-((5-(4-((4-Fluorobenzyl)carbamoyl)phenyl)furan-2-yl)-methylene)-3-methyl-5-oxo-4,5-dihydro-1H-pyrazol-1-yl)benzoic Acid], the “XPA inhibitory activity (in words)” value on full length human XPA is on record as “no XPA inhibitory activity”.
The same measure, in the same setting: for `CC1=NN(c2cccc(C(=O)O)c2)C(=O)/C1=C\c1ccc(-c2ccc(C(=O)NCC3CC3)cc2)o1` [Compound 39b, (Z)-3-(4-((5-(4-((Cyclopropylmethyl)carbamoyl)phenyl)furan-2-yl)methylene)-3-methyl-5-oxo-4,5-dihydro-1H-pyrazol-1-yl)benzoic Acid] the value was “no XPA inhibitory activity”.
